# Reference: patent US20230257367A1, “NOVEL THYROID HORMONE BETA RECEPTOR AGONIST” (Chengdu Kanghong Pharmaceutical Co., Ltd., priority 2020, published 2023)
# Like-named read-outs stand apart in the source and are kept apart here.
# Assays:
# [1] = reported clinical data (VK2809 phase I; Eprotirome phase III); cited from earlier work
# [2] = preclinical toxicological studies; cited from earlier work
# [3] = target: T1, TRα-LBD/RXRα (Homo sapiens, UniProt P10827); assay: In vitro binding experiment (TR-FRET SRC2-2 co-activator peptide recruitment), TRα; type: biochemical; settings: 4 h incubation at room temperature
# T1 construct: TRα-LBD (Invitrogen, PV4762), or TRβ-LBD (Invitrogen, PV4764) with a GST tag were used; purchased Invitrogen (TRα-LBD); Pharmaron (RXRα) PV4762
# [4] = target: T2, TRβ-LBD/RXRα (Homo sapiens, UniProt P10828); assay: In vitro binding experiment (TR-FRET SRC2-2 co-activator peptide recruitment), TRβ; type: biochemical; settings: 4 h incubation at room temperature
# T2 construct: TRβ-LBD (Invitrogen, PV4764) with a GST tag were used; purchased Invitrogen (TRβ-LBD); Pharmaron (RXRα) PV4764
# [5] = target: T3, TRα (Homo sapiens, UniProt P10827); assay: In vitro TRα cell transfection experiment (GAL4 luciferase reporter, HEK293T); type: cell-based
# T3 construct: host or cells: HEK293T
# T3 sequence (P10827 1-410 isoform P10827-2): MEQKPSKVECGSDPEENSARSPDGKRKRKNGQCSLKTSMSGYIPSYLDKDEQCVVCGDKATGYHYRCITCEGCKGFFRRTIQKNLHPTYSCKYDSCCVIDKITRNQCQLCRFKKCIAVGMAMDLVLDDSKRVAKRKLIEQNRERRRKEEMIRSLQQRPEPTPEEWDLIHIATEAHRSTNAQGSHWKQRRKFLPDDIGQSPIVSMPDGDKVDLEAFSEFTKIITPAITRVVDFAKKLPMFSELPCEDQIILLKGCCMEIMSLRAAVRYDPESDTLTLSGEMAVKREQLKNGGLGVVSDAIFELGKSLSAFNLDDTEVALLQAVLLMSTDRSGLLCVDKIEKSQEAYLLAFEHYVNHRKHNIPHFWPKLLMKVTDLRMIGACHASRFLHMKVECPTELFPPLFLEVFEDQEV
# T3 sequence (P19793 227-458 partner limits assumed): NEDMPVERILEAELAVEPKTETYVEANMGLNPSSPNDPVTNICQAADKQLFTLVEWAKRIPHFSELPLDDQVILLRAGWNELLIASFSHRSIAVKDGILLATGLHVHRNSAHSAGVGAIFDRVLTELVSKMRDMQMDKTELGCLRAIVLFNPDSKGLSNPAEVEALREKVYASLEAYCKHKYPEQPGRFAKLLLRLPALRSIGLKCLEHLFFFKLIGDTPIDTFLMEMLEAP
# [6] = target: T4, TRβ (Homo sapiens, UniProt P10828); assay: In vitro TRβ cell transfection experiment (GAL4 luciferase reporter, HEK293T); type: cell-based
# T4 construct: host or cells: HEK293T
# T4 sequence (P10828 217-461 limits assumed): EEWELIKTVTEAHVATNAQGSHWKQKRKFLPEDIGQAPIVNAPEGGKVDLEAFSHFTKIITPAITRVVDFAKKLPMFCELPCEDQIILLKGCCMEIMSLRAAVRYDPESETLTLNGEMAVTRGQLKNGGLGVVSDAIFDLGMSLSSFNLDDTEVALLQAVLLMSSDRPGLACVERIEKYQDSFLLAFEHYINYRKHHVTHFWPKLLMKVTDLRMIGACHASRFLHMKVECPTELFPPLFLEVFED
# T4 sequence (P19793 227-458 partner limits assumed): T3 sequence (P19793 227-458 partner limits assumed)
# [7] = system: primary hepatocyte; assay: Hepatotoxicity detection in vitro (CellTiter-Glo); type: cell-based, human; settings: primary hepatocytes; for IC50: Homo sapiens, Hepatocyte, cell viability after 48 hours; for Cell activity at the highest concentration (%): 48 hours, highest working solution concentration 600 μM
# Experimental: Information of Primary Hepatocyte
# Step 1: a test substance was prepared into a 200 mM DMSO stock solution, and then subjected to 3-times gradient continuous dilution by 7 concentrations, then 1.5 μL of each of the solutions of the 8 concentrations was added into 498.5 μL of incubation culture medium (with a composition referring to Table 5, directly mixed evenly) to prepare a working solution, and the incubation culture medium was preheated at 37° C. before preparation. DMSO was used as a solvent control. DMSO contents in the working solution and the solvent control were both 0.3 vol %. Concentrations of compounds were as follows:
# Step 2: Plate Inoculation and Cell Culture
# Second Step: Plate Inoculation and Culture of Cells
# 1) A tube of hepatocytes of the donor used in the experiment preserved at ultra-low temperature was taken, and the hepatocytes were ensured to be still frozen at low temperature before resuscitation. The hepatocytes were quickly placed in a water bath at 37° C. and gently shaken until all ice crystals were dispersed, and were transferred to a biosafety cabinet after spraying 70 vol % ethanol.
# 2) Contents of hepatocyte tubules were poured into a 50 mL centrifuge tube containing 50 mL of resuscitation culture medium (with a composition referring to Table 3, directly mixed evenly), and centrifuged at 80 g for 8 minutes. After centrifugation, the resuscitation culture medium was sucked out and an inoculation culture medium was added (with a composition referring to Table 4, directly mixed evenly). The cells were counted by AO/PI staining to obtain a cell suspension with a cell density of 0.2×10^6 cells per milliliter.
# 3) The cell suspension above was inoculated into a 96-well plate coated with collagen I, with 100 μL per well. The culture plate was placed in a 5% CO2 incubator with 95% relative humidity to culture for 4 hours to 6 hours.
# 4) After incubation for 4 hours to 6 hours, the state of the cells was observed under microscope. The culture plate was shaken gently, the inoculation culture medium was sucked out, and 100 μL of incubation culture medium was added into each well (with a composition referring to Table 5). A toxicity test could be carried out after culturing in the incubator for 18 hours to 20 hours.
# 5) Before administration, the morphology of the cells was observed under microscope. The culture medium in the culture plate was sucked out, and 100 μL of solvent control (DMSO), or test substance working solution was added into each well. Three parallel samples were tested under each condition.
# 6) The newly prepared working solution or solvent control was used for solution exchange every 24 hours after dosing.
# After the working solution acted for 48 hours, the morphology of the cells was observed under microscope for later use.
# Step 3: Cytotoxicity Detection
# 1) A CellTiter-Glo (Promega, article number G9243) reagent stored at −20° C. was melted in a water bath at 37° C.
# 2) After the cell culture plate obtained above was incubated for 48 hours, 50 μL of CellTiter-Glo solution was directly added into each experimental well.
# 3) The cell culture plate was vortexed at 400 rpm for 10 minutes, and incubated at room temperature to stabilize a luminescence signal.
# After 10 minutes 100 μL of reaction solution was sucked from each well and transferred to a new white nontransparent-bottom flat plate (Corning 96-well plate Cat No. 3917). The
# chemiluminescence value of each well was read by a microplate reader (a luminescence value of the white nontransparent-bottom flat plate was recorded as “a luminescence valueblank”; and a luminescence value of the solvent control was recorded as “a luminescence valuesolvent”).
# Cell viability(%)=[(luminescence valueto-be-tested compound−luminescence valueblank)/(luminescence valuesolvent−luminescence valueblank)]×100% […]
# [8] = PK experiment of cynomolgus monkeys; type: in vivo; settings: cynomolgus monkey, plasma; for AUC(0-t): read-out: Area under the curve AUC(0-t) in the case of administration; for Cmax: read-out: Peak concentration Cmax
# Excerpt: The purpose of this experiment was to evaluate the pharmacokinetic behavior of the compound to be tested after single intravenous and intragastric administration, and to study the bioavailability after intragastric administration, providing animal experimental data for clinical studies.
# Preparation of solutions for intravenous injection and intragastric administration: an appropriate amount of compound to be tested was accurately weighed, and mixed with a suitable solvent (5 vol % DMSO+10 vol % polyethylene glycol−15-hydroxystearate+85 vol % normal saline). After vortex, or ultrasound processing, a clear and transparent solution (the solution for intravenous injection administration), or a uniform suspension was obtained. The solution administrated by intravenous injection needed to be filtered through a 0.22 μm filter membrane
# Experimental design: before the first dose the cynomolgus monkeys were divided into 2 groups by body weight with 3 male cynomolgus monkeys in each group, where animals in group 1 were given the compound to be tested (1 mg/kg) by single intravenous injection (IV); and animals in the 2rd group were administrated with the compound to be tested (5 mg/kg) by single intragastric administration (PO). The animals were weighed before administration, and dosages were calculated based on the weights of the animals.
# Sample collection: a whole blood sample (about 0.2 mL) was collected at a specified time by venipuncture of an upper limb (or other suitable blood collection sites), and the actual blood collection time was recorded in test records. The acceptable error for one acquisition time point within 1 hour after administration is ±1 minute, and the acceptable error for other time points is ±5% of the theoretical time. All blood samples were immediately transferred to a labeled commercial centrifuge tube containing K2-EDTA. After blood sample collection, the blood sample was centrifuged at 4° C. and 3,200 g for 10 minutes, the supernatant plasma was sucked, quickly put in dry ice, and kept in a refrigerator at −70±10° C. for LC-MS/MS analysis. The collection time of both groups was 0.083 hour, 0.25 hour, 0.5 hour, 1 hour, 2 hours, 4 hours, 8 hours and 24 hours after administration.
# Data processing: Area under the curve (AUC(0-t) and AUC(0-∞)), elimination half-life (T½), peak concentration (Cmax), time to reach maximum plasma concentration (Tmax), etc., were calculated by the non-compartment analysis module in Phoenix WinNonlin 7.0.
# T1 sequence (P19793 whole entry partner, other chains not shown, the tested form may be a part): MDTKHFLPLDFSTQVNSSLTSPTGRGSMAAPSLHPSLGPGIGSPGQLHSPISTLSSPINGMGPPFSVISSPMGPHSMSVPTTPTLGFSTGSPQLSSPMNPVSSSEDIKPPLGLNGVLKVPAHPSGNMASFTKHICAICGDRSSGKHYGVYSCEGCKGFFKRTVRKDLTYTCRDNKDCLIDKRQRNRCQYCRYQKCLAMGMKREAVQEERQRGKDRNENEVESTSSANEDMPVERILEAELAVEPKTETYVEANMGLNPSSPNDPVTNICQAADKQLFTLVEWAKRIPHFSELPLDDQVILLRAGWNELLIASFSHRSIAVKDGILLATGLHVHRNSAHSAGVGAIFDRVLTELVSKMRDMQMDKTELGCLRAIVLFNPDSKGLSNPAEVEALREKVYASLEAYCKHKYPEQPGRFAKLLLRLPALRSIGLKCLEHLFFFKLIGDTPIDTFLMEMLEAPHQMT
# T2 sequence (P19793 whole entry partner, other chains not shown, the tested form may be a part): as above
EC50 [3],EC50 [4],EC50 [5],EC50 [6],Structure (SMILES),liver enzyme [1],cartilage damage [2],IC50 [7],Cell activity at the highest concentration (%) [7],further results
,,,,CC(C)c1cc(Oc2c(Br)cc(NC(=O)CC(=O)O)cc2Br)ccc1O [Eprotirome],increase in liver enzyme,cartilage injury was also found,,,
0.144 µM,0.031 µM,0.826 µM,0.089 µM,CC(C)c1nc(Oc2c(Cl)cc(-n3nc(C#N)c(=O)[nH]c3=O)cc2Cl)ncc1O [KH03],,,264000 nM,0.0421%,
1.47 µM,0.054 µM,0.269 µM,0.032 µM,O=c1cnn(-c2cc(Cl)c(Oc3ncc(O)c(Cc4ccccc4)n3)c(Cl)c2)c(=O)[nH]1 [KH10],,,160000 nM,0.0142%,
,,,,"CC(C)c1cc(Oc2c(Cl)cc(-n3nc(C#N)c(=O)[nH]c3=O)cc2Cl)n[nH]c1=O [MGL3196, reference compound]",,,,,"half-life ([8]; IV, 1 mg/kg, single dose, male cynomolgus monkeys, read-out: Half-life period (T1/2) (converted)): 1.45 h; bioavailability ([8]; male, PO 5 mg/kg vs IV 1 mg/kg, read-out: Bioavailability (F)): 8.47%; AUC(0-t) ([8]; male, IV, 1 mg/kg, single dose): 3900 ng·h/mL; Cmax ([8]; male, IV, 1 mg/kg, single dose): 11200 ng/mL; AUC(0-t) ([8]; male, PO, 5 mg/kg, single dose): 1650 ng·h/mL; Cmax ([8]; male, PO, 5 mg/kg, single dose): 430 ng/mL"
,,,,Cc1cc(OCP2(=O)OCC[C@@H](c3cccc(Cl)c3)O2)cc(C)c1Cc1ccc(O)c(C(C)C)c1 (stereo partly shown) [VK2809],Liver enzyme increase,cartilage damage was found,,,
